According to patent US20260224563A1, “CRYSTALLINE FORMS OF 6-(3-((5-CHLORO-2-METHOXYPYRIDINE)-3-SULFONAMIDO)-2,6-DIFLUOROPHENYL)-N-METHYLIMIDAZO[1,5-A]PYRAZINE-1-CARBOXAMIDE AND METHODS FOR USING THE SAME” (HIBERCELL, INC., priority 2023, published 2026):
Where two headings read alike, the source gives them in different places.

Experiment: Multicenter, open-label, Phase 1a/b study of HC-7366 in subjects with advanced solid tumors (safety, PK)
Format: in vivo
Details: for ARAUC: accumulation ratio based on AUC0-τ; for ARAUC / CL/F / Ctrough / DAUC0-last / DAUC0-τ / DCmax / tlast / Cmax / half-life / AUC(0-t) / Vd/F / Tmax: human; for Cmax / half-life / AUC(0-t) / Vd/F / Tmax: plasma, po; for Vd/F: read-out: Vz/F
Text: Identify the maximum tolerated dose (MTD) and/or recommended Phase 2 dose (RP2D) of HC-7366, and evaluate the safety, tolerability, and dose-limiting toxicities (DLTs) of HC-7366 using Form III of the potassium salt of the compound of formula (I) (see Example 6, also referred to within this example as HC-7366-K), in subjects with advanced solid tumors, including: • a. occurrence of DLTs • b. incidence and severity of treatment-emergent adverse events (TEAEs) and treatment related TEAEs according to National Cancer Institute Common Terminology Criteria for Adverse Events (NCI CTCAE) v 5.0 • c. incidence of TEAEs leading to premature discontinuation • d. incidence of laboratory abnormalities, based on NCI CTCAE grades of hematology, serum chemistry, and urinalysis test results • e. incidence of abnormalities observed in 12 lead ECG parameters • f. incidence of abnormalities observed in vital signs measurements
Determine plasma concentration and pharmacokinetic (PK) parameters following treatment with HC-7366 using Form III of the potassium salt of the compound of formula (I) (see Example 6, also referred to within this example as HC-7366-K).
Preliminarily assess the potential antitumor activity of HC-7366 in terms of response rate, disease stabilization, and survival outcomes by assessing: • a. Overall response rate (ORR) to HC-7366 using response evaluation criteria in solid tumors (iRECIST) • b. Duration of response (DOR) to HC-7366 using iRECIST • c. Time to treatment failure (TTF) • d. Progression free survival (PFS) using iRECIST • e. Overall survival (OS)
This is a first in human, multicenter, open label, Phase 1a and 1b dose-escalation and dose-expansion study to establish the maximum tolerated dose, recommended Phase 2 dose, and evaluate the safety and tolerability of QD oral dosing of HC 7366 in a dose escalating fashion in subjects with advanced solid tumors. Up to 40 subjects were enrolled into the Phase 1a dose-escalation part of the study. The study was conducted in the United States at approximately 7 to 10 sites.
Every effort was made to ensure approximately 50% of all subjects enrolled into Phase 1a of this study are subjects with the tumors of special interest including squamous cell carcinoma of the head and neck, colorectal cancer, non-small cell lung cancer, and transitional cell carcinoma of the bladder. […] All subjects in Phase 1b enrolled with clear cell renal cell carcinoma. The Phase 1a study followed a traditional 3+3 design. The starting dose level was 10 mg QD, escalating to 20, 40, 75, 125, and 150 mg QD as safety allows. All doses were administered in the fasting state with water at least 1 hour before food or at least 2 hours after food.
The Phase 1b dose-expansion was at a single dose level of 75 mg based on the safety, tolerability, PK/PD results from Phase 1a to obtain additional safety and preliminary efficacy information. Up to 30 subjects were enrolled in the Phase 1b portion of the study at the 75 mg dose. Replacement patients were enrolled as necessary. Subjects were dosed until unacceptable toxicity, disease progression per immune-related Response Evaluation Criteria in Solid Tumors, discontinuation of treatment for other protocol allowed reason (eg, subject refusal), any other administrative reasons, or after 2 years of treatment, whichever occurs first.
For scheduling purposes, dosing in Phase 1a and 1b occurred in 3 week cycles and computed tomography scans were conducted once every 6 weeks from Cycle 1/Day 1, with the first postbaseline scan after 6 weeks of dosing (precycle 3) until confirmed disease progression, death, start of new anticancer therapy, withdrawal of consent, or end of study, whichever occurs first.
Subjects of Phase 1a and 1b spent Cycle 1/Day 1 (C1D1) in the clinic followed by an optional overnight stay for safety monitoring and PK sampling. Subjects were hospitalized (optional) for administration of the first 2 doses: C1D1 and Cycle 1/Day 2 (C1D2). […]

[1] = multiple once daily oral 10 mg (N = 3), Cycle 1 Day 21, geometric mean
[2] = multiple once daily oral 20 mg (N = 3), Cycle 1 Day 21, geometric mean
[3] = multiple once daily oral 40 mg (N = 8), Cycle 1 Day 21, geometric mean
[4] = multiple once daily oral 75 mg (N = 7), Cycle 1 Day 21, geometric mean
[5] = multiple once daily oral 125 mg (N = 1), Cycle 1 Day 21
[6] = human subjects, multiple once daily oral administration, 10 mg
[7] = human subjects, multiple once daily oral administration, 20 mg
[8] = human subjects, multiple once daily oral administration, 40 mg
[9] = human subjects, multiple once daily oral administration, 75 mg
[10] = human subjects, multiple once daily oral administration, 125 mg (N=1)
[11] = 10 mg, multiple once daily oral 10 mg (N = 3), Cycle 1 Day 21, geometric mean
[12] = 10 mg, single oral dose 10 mg (N = 3), Cycle 1 Day 1, geometric mean
[13] = 20 mg, multiple once daily oral 20 mg (N = 3), Cycle 1 Day 21, geometric mean
[14] = 20 mg, single oral dose 20 mg (N = 3), Cycle 1 Day 1, geometric mean
[15] = 40 mg, multiple once daily oral 40 mg (N = 8), Cycle 1 Day 21, geometric mean
[16] = 40 mg, single oral dose 40 mg (N = 11), Cycle 1 Day 1, geometric mean

CNC(=O)c1ncn2cc(-c3c(F)ccc(NS(=O)(=O)c4cc(Cl)cnc4OC)c3F)ncc12 [HC-7366, 6-(3-((5-chloro-2-methoxypyridine)-3-sulfonamido)-2,6-difluorophenyl)-N-methylimidazo[1,5-a]pyrazine-1-carboxamide]
ARAUC [1]: 1.45 | ARAUC [2]: 1.46 | ARAUC [3]: 1.89 | ARAUC [4]: 1.77 | ARAUC [5]: 1.13 | dose proportionality of exposure (geometric mean Cmax and AUC) (human subjects, 10 to 75 mg, single dose and multiple once daily dosing): increased approximately proportional to increases in dose | time by which exposure appeared to be at steady-state (human subjects, continuous once daily dosing, trough concentrations): Cycle 1 Day 8 to Day 15 | dose proportionality of exposure (human subjects, increase from 75 to 125 mg, single dose administration): slightly greater than dose proportional | geometric mean accumulation ratio (ARAUC) [6]: 1.45 | geometric mean linearity ratio (LR) [6]: 1.11 | geometric mean accumulation ratio (ARAUC) [7]: 1.46 | geometric mean linearity ratio (LR) [7]: 1.14 | geometric mean accumulation ratio (ARAUC) [8]: 1.89 | geometric mean linearity ratio (LR) [8]: 1.11 | geometric mean accumulation ratio (ARAUC) [9]: 1.77 | geometric mean linearity ratio (LR) [9]: 1.22 | accumulation ratio (ARAUC) [10]: 1.13 | linearity ratio (LR) [10]: 0.759 | CL/F [1]: 0.457 L/h | Ctrough [1]: 517 ng/mL | DAUC0-last [1]: 1700 ng·h/mL/mg | DAUC0-τ [1]: 2190 ng·h/mL/mg | DCmax [1]: 198 ng/mL/mg | tlast (multiple once daily oral 10 mg (N = 3), Cycle 1 Day 21, median): 12.00 h | CL/F [2]: 0.478 L/h | Ctrough [2]: 674 ng/mL | DAUC0-last [2]: 2090 ng·h/mL/mg | DAUC0-τ [2]: 2090 ng·h/mL/mg | DCmax [2]: 185 ng/mL/mg | tlast (multiple once daily oral 20 mg (N = 3), Cycle 1 Day 21, median): 24.00 h | CL/F [3]: 0.403 L/h | Ctrough [3]: 2360 ng/mL | DAUC0-last [3]: 2380 ng·h/mL/mg | DAUC0-τ [3]: 2480 ng·h/mL/mg | DCmax [3]: 184 ng/mL/mg | tlast (multiple once daily oral 40 mg (N = 8), Cycle 1 Day 21, median): 24.00 h | CL/F [4]: 0.402 L/h | Ctrough [4]: 5010 ng/mL | DAUC0-last [4]: 2210 ng·h/mL/mg | DAUC0-τ [4]: 2490 ng·h/mL/mg | DCmax [4]: 190 ng/mL/mg | tlast (multiple once daily oral 75 mg (N = 7), Cycle 1 Day 21, median): 24.00 h | CL/F [5]: 0.311 L/h | Ctrough [5]: 3780 ng/mL | DAUC0-last [5]: 2080 ng·h/mL/mg | DAUC0-τ [5]: 3210 ng·h/mL/mg | DCmax [5]: 306 ng/mL/mg | Cmax [11]: 1980 ng/mL | half-life [11]: 9.94 h | AUC(0-t) (10 mg, multiple once daily oral 10 mg (N = 3), Cycle 1 Day 21, geometric mean, read-out: AUC0-last): 17000 ng·h/mL | Vd/F [11]: 6.55 L | Tmax (10 mg, multiple once daily oral 10 mg (N = 3), Cycle 1 Day 21, median): 2 h | Cmax [12]: 1450 ng/mL | half-life [12]: 11.3 h | AUC(0-t) (10 mg, single oral dose 10 mg (N = 3), Cycle 1 Day 1, geometric mean, read-out: AUC0-24): 15100 ng·h/mL | AUC(0-t) (10 mg, single oral dose 10 mg (N = 3), Cycle 1 Day 1, geometric mean, read-out: AUC0-last): 15100 ng·h/mL | Vd/F [12]: 8.26 L | Tmax (10 mg, single oral dose 10 mg (N = 3), Cycle 1 Day 1, median): 2 h | Cmax [13]: 3710 ng/mL | half-life [13]: 12.2 h | AUC(0-t) (20 mg, multiple once daily oral 20 mg (N = 3), Cycle 1 Day 21, geometric mean, read-out: AUC0-last): 41900 ng·h/mL | Vd/F [13]: 8.4 L | Tmax (20 mg, multiple once daily oral 20 mg (N = 3), Cycle 1 Day 21, median): 2 h | Cmax [14]: 2330 ng/mL | half-life [14]: 9.99 h | AUC(0-t) (20 mg, single oral dose 20 mg (N = 3), Cycle 1 Day 1, geometric mean, read-out: AUC0-24): 28700 ng·h/mL | AUC(0-t) (20 mg, single oral dose 20 mg (N = 3), Cycle 1 Day 1, geometric mean, read-out: AUC0-last): 28700 ng·h/mL | Vd/F [14]: 7.84 L | Tmax (20 mg, single oral dose 20 mg (N = 3), Cycle 1 Day 1, median): 4 h | Cmax [15]: 7360 ng/mL | half-life [15]: 12.4 h | AUC(0-t) (40 mg, multiple once daily oral 40 mg (N = 8), Cycle 1 Day 21, geometric mean, read-out: AUC0-last): 95000 ng·h/mL | Vd/F [15]: 8.31 L | Tmax (40 mg, multiple once daily oral 40 mg (N = 8), Cycle 1 Day 21, median): 2 h | Cmax [16]: 4520 ng/mL | half-life [16]: 14.8 h
